Measured values published in PubChem BioAssay (NCI).
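Step 1: Grow cells in 96-well plates. Step 2: Expose to compound for 48 hours at 5 concentrations. Step 3: Interpolate endpoints linearly; if unreached, use highest concentration. GI50 = concentration required for 50% inhibition of growth. At the TGI there is no net growth.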

Columns and labels:
Experiment in all cases: NCI anticancer screen, dose series, 48 h
[1] = tested on: SNB-19 CNS
[2] = tested on: PC-3 prostate
[3] = tested on: ACHN renal
[4] = tested on: U251 CNS
[5] = tested on: BT-549 breast
[6] = tested on: UO-31 renal
[7] = tested on: SN12C renal
[8] = tested on: UACC-62 melanoma
[9] = tested on: HCT-116 colon
[10] = tested on: OVCAR-3 ovarian

SMILES	TGI [1]	TGI [2]	TGI [3]	TGI [4]	TGI [5]	TGI [6]	TGI [7]	TGI [8]	TGI [9]	TGI [10]	GI50 [1]	GI50 [2]	GI50 [3]	GI50 [4]	GI50 [6]	GI50 [7]	GI50 [10]	GI50 [9]
C[C@@]1(OC(=O)c2cc([N+](=O)[O-])cc([N+](=O)[O-])c2)C[C@@H]2CCCC[C@@H]21	> 100 µM	> 100 µM	> 100 µM	> 100 µM	> 100 µM	> 100 µM	> 100 µM	> 100 µM	> 100 µM	–	–	–	–	–	–	–	–	–
COc1ccc(NC/C=C/C(=C/COC(C)=O)OC(C)=O)cc1	9.29 µM	5.98 µM	3.29 µM	4.53 µM	3.16 µM	25 µM	–	14.5 µM	3.55 µM	4.28 µM	–	–	–	–	–	–	–	–
S=C(N/N=C/c1ccccn1)N1CCCCCC1	> 100 µM	> 100 µM	1.53 µM	–	22.6 µM	4.76 µM	0.359 µM	0.364 µM	–	9.3 µM	–	–	–	–	–	–	–	–
C[C@H](NC(=O)CNC(=O)CCCCCC(=O)NCC(=O)N[C@@H](C)C(=O)OCc1ccccc1)C(=O)OCc1ccccc1	> 100 µM	> 100 µM	> 100 µM	> 100 µM	> 100 µM	–	> 100 µM	> 100 µM	> 100 µM	> 100 µM	–	–	–	–	–	–	–	–
CCOC(=O)/C=C/C1(CCOC(C)=O)CCCCC1	> 10 µM	> 10 µM	> 10 µM	> 10 µM	–	> 10 µM	> 10 µM	> 10 µM	> 10 µM	> 10 µM	–	–	–	–	–	–	–	–
CCc1ccccc1NC(=O)CC1NC(=O)CS1 (stereo not drawn)	> 100 µM	–	–	> 100 µM	–	> 100 µM	> 100 µM	> 100 µM	> 100 µM	> 100 µM	–	–	–	–	–	–	–	–
CSc1c(C#N)c(S)n(-c2ccc(Cl)cc2)c(=O)c1C#N	> 100 µM	> 100 µM	–	> 100 µM	> 100 µM	95.8 µM	> 100 µM	> 100 µM	> 100 µM	> 100 µM	–	–	–	–	–	–	–	–
O/N=C1/CCCc2nonc21	> 100 µM	> 100 µM	> 100 µM	> 100 µM	–	> 100 µM	> 100 µM	> 100 µM	> 100 µM	> 100 µM	–	–	–	–	–	–	–	–
Nc1nc2ncn(CC(O)CO)c2c(=O)[nH]1 (stereo not drawn)	> 100 µM	–	> 100 µM	> 100 µM	–	> 100 µM	> 100 µM	> 100 µM	> 100 µM	> 100 µM	–	–	–	–	–	–	–	–
O=c1ccn(/C=C/C(O)C(O)CO)c(=O)[nH]1 (stereo not drawn)	> 100 µM	–	> 100 µM	> 100 µM	–	> 100 µM	> 100 µM	> 100 µM	> 100 µM	> 100 µM	–	–	–	–	–	–	–	–
C/C(=N\NC(=S)Nc1ccc([N+](=O)[O-])cc1)c1nc2ncccc2[nH]1	4 µM	16.9 µM	–	1.84 µM	2.35 µM	1.35 µM	56.6 µM	–	6.12 µM	17.7 µM	–	–	–	–	–	–	–	–
CC(=O)N(CC(=O)C(=O)NNc1ccoc1)c1ccc(Cl)cc1	> 100 µM	> 100 µM	> 100 µM	> 100 µM	> 100 µM	> 100 µM	> 100 µM	–	> 100 µM	> 100 µM	–	–	–	–	–	–	–	–
C[C@H]1C[C@H]2[C@@H]3CCC4=CC(=O)C=C[C@]4(C)C3=CC[C@]2(C)[C@@]1(O)C(=O)CO	> 100 µM	> 100 µM	> 100 µM	> 100 µM	–	> 100 µM	> 100 µM	> 100 µM	> 100 µM	–	–	–	–	–	–	–	–	–
O=C(N/N=C(\C1=Nc2ccc(Cl)cc2NC1O)C(O)/C=C/c1ccccc1)c1ccncc1 (stereo not drawn)	> 100 µM	–	> 100 µM	> 100 µM	–	> 100 µM	> 100 µM	> 100 µM	> 100 µM	> 100 µM	–	–	–	–	–	–	–	–
COC(=O)CCC(NC(=S)N/N=C(\C)c1cnccn1)C(=O)OC (stereo not drawn)	> 100 µM	–	> 100 µM	> 100 µM	–	> 100 µM	> 100 µM	90.2 µM	> 100 µM	> 100 µM	–	–	–	–	–	–	–	–
Oc1cccnc1/C=N/OCc1ccccc1	> 100 µM	–	> 100 µM	> 100 µM	–	> 100 µM	> 100 µM	> 100 µM	> 100 µM	> 100 µM	–	–	–	–	–	–	–	–
CC(=O)NCCCCN(CCCNC(C)=O)C(=O)OCc1ccccc1	–	> 100 µM	> 100 µM	> 100 µM	> 100 µM	> 100 µM	> 100 µM	> 100 µM	> 100 µM	> 100 µM	–	–	–	–	–	–	–	–
COCCOCOC(C)(C)[C@H](CCO)O[Si](c1ccccc1)(c1ccccc1)C(C)(C)C	31.7 µM	–	18.9 µM	24.5 µM	–	26.9 µM	12.7 µM	28.3 µM	14.1 µM	22.2 µM	–	–	–	–	–	–	–	–
O=C1c2ccccc2C(=O)c2c1cc1c(c2[N+](=O)[O-])OCO1	14.4 µM	4.66 µM	1.3 µM	7.72 µM	–	6.02 µM	8.05 µM	–	4.44 µM	4.77 µM	2.55 µM	1.29 µM	0.248 µM	2.15 µM	1.54 µM	1.73 µM	1.43 µM	0.641 µM
Cc1ccc(S(=O)(=O)NC(=O)Nc2cc(Cl)c(S(N)(=O)=O)cc2S(N)(=O)=O)cc1	> 100 µM	–	–	> 100 µM	> 100 µM	> 100 µM	> 100 µM	> 100 µM	> 100 µM	> 100 µM	–	–	–	–	–	–	–	–
Nc1ccc(-c2nc3ccc(F)cc3s2)cc1I	> 100 µM	> 100 µM	> 100 µM	> 100 µM	> 100 µM	> 100 µM	> 100 µM	> 100 µM	> 100 µM	–	–	–	–	–	–	–	–	–
CS(=O)(=O)C1(Br)S(=O)(=O)OCCOS1(=O)=O	> 100 µM	–	> 100 µM	> 100 µM	–	> 100 µM	> 100 µM	> 100 µM	> 100 µM	> 100 µM	–	–	–	–	–	–	–	–
O=C(Nc1nc2ncn(CCO)c2c(=O)[nH]1)c1ccccc1	> 100 µM	–	> 100 µM	> 100 µM	–	> 100 µM	> 100 µM	> 100 µM	> 100 µM	> 100 µM	–	–	–	–	–	–	–	–
CSc1nc2c3ccccc3ccn2c1C(=O)N/N=C/c1ccccc1	–	> 100 µM	25.3 µM	37.7 µM	–	42.7 µM	> 100 µM	> 100 µM	38.2 µM	37.4 µM	–	–	–	–	–	–	–	–
